Format in all cases: in vivo
Test [1] relates to Echinochloa crus-gali (ECHCG). As to the kind of experiment: Post-emergence efficacy, Echinochloa crus-gali. Conditions: 16DAA. The source says:
(§1) When active ingredients are combined, the activity to be expected (E) for any given active ingredient combination obeys the so-called Colby Formula and can be calculated as follows (Colby, S. R., Calculating synergistic and antagonistic responses of herbicide combination, Weeds, Vol. 15, pages 20-22; 1967): • ppm =milligrams of active ingredient (a.i.) per litre • X=% action by first active ingredient using p ppm of the active ingredient • Y=% action by second active ingredient using q ppm of the active ingredient.
(§2) According to Colby, the expected action of active ingredients A+B using p+q ppm of active ingredient is represented by the following formula: […]
(§3) If the action actually observed (O) is greater than the expected action E then the action of the combination is super-additive, i.e. there is a synergistic effect. In mathematical terms, synergism corresponds to a positive value for the difference of (O-E). In the case of purely complementary addition of activities (expected activity), said difference (O-E) is zero. A negative value of said difference (O-E) signals a loss of activity compared to the expected activity.
(§4) The efficacy of various compositions of the present invention were tested against plants including the following species: Echinochloa crus-gali (ECHCG), Lolium multiflorum(LOLMU), Setaria faberi (SETFA) and Digitaria insularis (TRCIN). The compositions are applied post-emergence, and the tests evaluated at certain days-after-application (DAA) as indicated. The tests were evaluated (100=total damage to plant; 0=no damage to plant), and the results are shown below in Tables B1 to B4.

For another test, the system named is Setaria faberi (SETFA). The test can be described thus: Post-emergence efficacy, Setaria faberi. Particulars: 15DAA, rate 3 g/ha, 100=total damage to plant, 0=no damage.
Description: as §1, §2
If the action actually observed (O) is greater than the expected action E then the action of the combination is super-additive, i.e. there is a synergistic effect. […]
as §4

The subject of test [2] is Lolium multiflorum (LOLMU). As to the kind of experiment: Post-emergence efficacy, Lolium multiflorum. Particulars: 15DAA.
Description: as §1, §2, §3, §4

Test [3] has as its system Digitaria insularis (TRCIN). The test can be described thus: Post-emergence efficacy, Digitaria insularis. Conditions: 13DAA.
Description: as §1, §2, §3, §4

The mark [4] stands for this setting: rate 1.88 g/ha, 100=total damage, 0=no damage.

For the compound `COC(=O)[C@@H](C)Oc1ccc(Oc2ncc(C(F)(F)F)cc2Cl)cc1` [Formula B5a, haloxyfop-P-methyl], the Observed in test [1] (rate 8 g/ha) came out at 13.
As to `CCSC(C)CC1CC(=O)C(/C(CC)=N/OC/C=C/Cl)=C(O)C1` (stereo not shown) [Formula B1, clethodim], the Observed with Setaria faberi (SETFA) is 25.
For `CC#Cc1ccc(C2=C(OC(=O)OC)C3CCC(C3)C2=O)c(OC)c1` (stereo not shown) [Ic], the Observed amounted to 44 in test [2] (rate 6.25 g/ha, 100=total damage, 0=no damage); 59 in test [2] (rate 12.5 g/ha); 30 in test [1] (rate 3.125 g/ha, 100=total damage, 0=no damage); 88 in test [1] (rate 6.25 g/ha); 48 in test [3] (setting [4]).
As for `CCCCOC(=O)[C@@H](C)Oc1ccc(Oc2ccc(C(F)(F)F)cn2)cc1` [Formula B4a, fluazifop-P-butyl], in test [2] (rate 8 g/ha), the Observed was 68.
As to `CCc1cc(C)cc(CC)c1-c1c(OC(=O)C(C)(C)C)n2n(c1=O)CCOCC2` [Formula B6, pinoxaden], the values for the Observed in test [3] (rate 0.94 g/ha) and in test [3] (setting [4]) were 0 and 20, respectively.

Values taken from patent publication US20240306642A1, “Herbicidal Compositions” (SYNGENTA CROP PROTECTION AG, priority 2021, published 2024).
